Experimental data taken from patent US12194048B2, “Use of pyrrolopyridine derivatives for preventing or treating inflammatory diseases” (VORONOI CO., LTD., priority 2020, dated 2025).

Tests used:
ABL1-nonphosphorylated = target: T1, ABL1-nonphosphorylated (Homo sapiens, UniProt P00519); assay: scanMAX Kinase analysis panel (DiscoverX); assay type: binding; settings: drug 1 μM in DMSO; from % control
T1 construct: purchased DiscoverX scanMAX Kinase analysis panel
From the text: (§1) [(Example compound−positive control)/(negative control−positive control)×100]

ALK = target: T2, ALK (Homo sapiens, UniProt Q9UM73); assay: scanMAX Kinase analysis panel (DiscoverX); assay type: binding; settings: drug 1 μM in DMSO; from % control
T2 construct: purchased DiscoverX scanMAX Kinase analysis panel
From the text: as §1

ALK(C1156Y) = target: T3, ALK(C1156Y) (Homo sapiens, UniProt Q9UM73, C1156Y); assay: scanMAX Kinase analysis panel (DiscoverX); assay type: binding; settings: drug 1 μM in DMSO; from % control
T3 construct: purchased DiscoverX scanMAX Kinase analysis panel
From the text: as §1

ALK(L1196M) = target: T4, ALK(L1196M) (Homo sapiens, UniProt Q9UM73, L1196M); assay: scanMAX Kinase analysis panel (DiscoverX); assay type: binding; settings: drug 1 μM in DMSO; from % control
T4 construct: purchased DiscoverX scanMAX Kinase analysis panel
From the text: as §1

CAMK2D = target: T5, CAMK2D (Homo sapiens, UniProt Q13557); assay: scanMAX Kinase analysis panel (DiscoverX); assay type: binding; settings: drug 1 μM in DMSO; from % control
T5 construct: purchased DiscoverX scanMAX Kinase analysis panel
From the text: as §1

CSNK1A1 = target: T6, CSNK1A1 (Homo sapiens, UniProt P48729); assay: scanMAX Kinase analysis panel (DiscoverX); assay type: binding; settings: drug 1 μM in DMSO; from % control
T6 construct: purchased DiscoverX scanMAX Kinase analysis panel
T6 sequence (P48729 whole entry): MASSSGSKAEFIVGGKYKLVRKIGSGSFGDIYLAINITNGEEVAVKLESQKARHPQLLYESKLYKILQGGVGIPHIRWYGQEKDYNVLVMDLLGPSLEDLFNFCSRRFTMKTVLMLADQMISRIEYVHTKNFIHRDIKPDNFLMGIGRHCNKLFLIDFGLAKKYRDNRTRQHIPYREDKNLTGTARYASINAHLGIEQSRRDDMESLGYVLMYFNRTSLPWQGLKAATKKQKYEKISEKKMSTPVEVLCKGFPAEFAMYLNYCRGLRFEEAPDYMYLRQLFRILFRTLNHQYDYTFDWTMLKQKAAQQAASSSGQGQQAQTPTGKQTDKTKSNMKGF
From the text: as §1

CSNK1D = target: T7, CSNK1D (Homo sapiens, UniProt P48730); assay: scanMAX Kinase analysis panel (DiscoverX); assay type: binding
T7 construct: purchased DiscoverX scanMAX Kinase analysis panel
From the text: as §1

GAK = target: T8, GAK (Homo sapiens, UniProt O14976); assay: scanMAX Kinase analysis panel (DiscoverX); assay type: binding; settings: drug 1 μM in DMSO; from % control
T8 construct: purchased DiscoverX scanMAX Kinase analysis panel
From the text: as §1

HUNK = target: T9, HUNK (Homo sapiens, UniProt P57058); assay: scanMAX Kinase analysis panel (DiscoverX); assay type: binding; settings: drug 1 μM in DMSO; from % control
T9 construct: purchased DiscoverX
From the text: as §1

INSR = target: T10, INSR (Homo sapiens, UniProt P06213); assay: scanMAX Kinase analysis panel (DiscoverX); assay type: binding; settings: drug 1 μM in DMSO; from % control
T10 construct: purchased DiscoverX
From the text: as §1

JNK1 = target: T11, JNK1 (Homo sapiens, UniProt P45983); assay: scanMAX Kinase analysis panel (DiscoverX); assay type: binding; settings: drug 1 μM in DMSO; from % control
T11 construct: purchased DiscoverX scanMAX Kinase analysis panel
From the text: as §1

JNK2 = target: T12, JNK2 (Homo sapiens, UniProt P45984); assay: scanMAX Kinase analysis panel (DiscoverX); assay type: binding; settings: drug 1 μM in DMSO; from % control
T12 construct: purchased DiscoverX
T12 sequence (P45984 whole entry): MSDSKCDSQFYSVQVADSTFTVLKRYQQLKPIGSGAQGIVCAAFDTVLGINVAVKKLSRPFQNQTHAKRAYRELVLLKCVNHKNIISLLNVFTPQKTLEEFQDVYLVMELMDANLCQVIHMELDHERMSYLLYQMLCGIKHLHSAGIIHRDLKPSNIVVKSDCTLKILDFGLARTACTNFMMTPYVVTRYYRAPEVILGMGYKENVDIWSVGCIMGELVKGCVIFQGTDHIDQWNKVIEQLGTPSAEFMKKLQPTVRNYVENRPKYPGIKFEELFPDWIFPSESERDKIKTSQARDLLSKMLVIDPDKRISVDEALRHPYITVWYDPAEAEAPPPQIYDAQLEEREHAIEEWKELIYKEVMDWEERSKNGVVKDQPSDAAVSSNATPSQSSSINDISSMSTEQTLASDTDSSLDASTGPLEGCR
From the text: as §1

LRRK2 = target: T13, LRRK2 (Homo sapiens, UniProt Q5S007); assay: scanMAX Kinase analysis panel (DiscoverX); assay type: binding; settings: drug 1 μM in DMSO; from % control
T13 construct: purchased DiscoverX
T13 sequence (Q5S007 whole entry): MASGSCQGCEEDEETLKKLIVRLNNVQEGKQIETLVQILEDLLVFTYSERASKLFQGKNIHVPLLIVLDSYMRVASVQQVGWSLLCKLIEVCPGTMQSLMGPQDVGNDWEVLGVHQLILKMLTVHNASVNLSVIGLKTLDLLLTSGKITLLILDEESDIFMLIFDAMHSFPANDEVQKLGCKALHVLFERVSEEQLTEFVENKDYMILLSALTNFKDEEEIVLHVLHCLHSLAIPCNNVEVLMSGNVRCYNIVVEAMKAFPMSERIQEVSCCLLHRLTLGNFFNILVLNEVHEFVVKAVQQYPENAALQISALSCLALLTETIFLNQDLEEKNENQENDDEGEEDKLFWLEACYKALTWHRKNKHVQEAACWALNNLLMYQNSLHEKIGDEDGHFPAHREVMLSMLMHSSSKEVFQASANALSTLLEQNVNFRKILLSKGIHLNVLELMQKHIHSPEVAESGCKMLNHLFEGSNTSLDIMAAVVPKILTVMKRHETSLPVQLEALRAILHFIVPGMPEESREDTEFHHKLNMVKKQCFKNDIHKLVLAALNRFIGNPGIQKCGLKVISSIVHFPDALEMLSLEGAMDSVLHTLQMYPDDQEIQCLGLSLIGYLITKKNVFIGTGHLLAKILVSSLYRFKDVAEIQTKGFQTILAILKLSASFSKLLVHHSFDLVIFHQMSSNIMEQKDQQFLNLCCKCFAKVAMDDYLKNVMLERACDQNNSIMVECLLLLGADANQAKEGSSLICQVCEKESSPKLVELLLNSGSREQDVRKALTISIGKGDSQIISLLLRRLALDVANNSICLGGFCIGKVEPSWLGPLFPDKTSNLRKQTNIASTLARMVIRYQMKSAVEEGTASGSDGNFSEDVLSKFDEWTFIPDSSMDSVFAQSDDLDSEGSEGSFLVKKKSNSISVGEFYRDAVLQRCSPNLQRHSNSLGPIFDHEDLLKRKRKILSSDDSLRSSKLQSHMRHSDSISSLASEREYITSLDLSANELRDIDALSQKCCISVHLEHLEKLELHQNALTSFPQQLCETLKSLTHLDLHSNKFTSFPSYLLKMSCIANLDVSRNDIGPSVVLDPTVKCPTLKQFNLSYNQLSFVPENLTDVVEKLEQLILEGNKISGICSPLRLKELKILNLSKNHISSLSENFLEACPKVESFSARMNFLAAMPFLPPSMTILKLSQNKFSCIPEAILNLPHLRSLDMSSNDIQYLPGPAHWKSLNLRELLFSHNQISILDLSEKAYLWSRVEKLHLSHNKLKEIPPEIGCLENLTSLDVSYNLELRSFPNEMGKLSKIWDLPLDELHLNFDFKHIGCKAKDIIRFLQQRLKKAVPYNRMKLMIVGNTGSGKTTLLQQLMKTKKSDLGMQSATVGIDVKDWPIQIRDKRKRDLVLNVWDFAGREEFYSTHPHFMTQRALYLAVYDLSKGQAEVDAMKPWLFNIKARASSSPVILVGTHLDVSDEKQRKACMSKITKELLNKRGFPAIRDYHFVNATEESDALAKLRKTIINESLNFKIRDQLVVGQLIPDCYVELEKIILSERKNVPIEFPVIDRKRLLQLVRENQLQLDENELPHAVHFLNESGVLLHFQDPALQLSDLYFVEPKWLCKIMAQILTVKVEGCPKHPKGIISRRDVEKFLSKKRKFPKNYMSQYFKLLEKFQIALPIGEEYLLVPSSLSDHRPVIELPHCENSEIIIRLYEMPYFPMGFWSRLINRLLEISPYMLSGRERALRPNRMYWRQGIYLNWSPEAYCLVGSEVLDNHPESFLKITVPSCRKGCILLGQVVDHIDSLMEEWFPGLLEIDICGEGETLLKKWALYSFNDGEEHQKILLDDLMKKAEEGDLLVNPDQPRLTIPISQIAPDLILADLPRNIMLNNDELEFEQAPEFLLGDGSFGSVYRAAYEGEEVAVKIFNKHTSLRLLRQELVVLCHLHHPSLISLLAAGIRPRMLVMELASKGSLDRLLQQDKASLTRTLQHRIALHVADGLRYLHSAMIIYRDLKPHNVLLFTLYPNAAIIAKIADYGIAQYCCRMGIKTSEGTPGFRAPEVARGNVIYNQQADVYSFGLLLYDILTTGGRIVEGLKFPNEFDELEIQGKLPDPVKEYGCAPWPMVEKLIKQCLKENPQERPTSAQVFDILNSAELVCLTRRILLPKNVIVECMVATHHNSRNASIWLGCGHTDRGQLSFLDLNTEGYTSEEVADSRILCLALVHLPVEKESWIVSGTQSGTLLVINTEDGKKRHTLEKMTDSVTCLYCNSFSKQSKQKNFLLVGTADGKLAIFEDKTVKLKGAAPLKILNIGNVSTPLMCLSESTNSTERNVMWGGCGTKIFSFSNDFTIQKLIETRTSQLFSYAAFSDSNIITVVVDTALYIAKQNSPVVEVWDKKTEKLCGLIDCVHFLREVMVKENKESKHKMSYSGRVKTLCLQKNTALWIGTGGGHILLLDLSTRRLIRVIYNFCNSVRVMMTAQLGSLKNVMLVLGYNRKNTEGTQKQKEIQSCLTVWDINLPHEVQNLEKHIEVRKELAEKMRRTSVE
From the text: as §1

LTK = target: T14, LTK (Homo sapiens, UniProt P29376); assay: scanMAX Kinase analysis panel (DiscoverX); assay type: binding; settings: drug 1 μM in DMSO; from % control
T14 construct: purchased DiscoverX scanMAX Kinase analysis panel
From the text: as §1

MAPKAPK2 = target: T15, MAPKAPK2 (Homo sapiens, UniProt P49137); assay: scanMAX Kinase analysis panel (DiscoverX); assay type: binding; settings: drug 1 μM in DMSO; from % control
T15 construct: purchased DiscoverX
T15 sequence (P49137 whole entry): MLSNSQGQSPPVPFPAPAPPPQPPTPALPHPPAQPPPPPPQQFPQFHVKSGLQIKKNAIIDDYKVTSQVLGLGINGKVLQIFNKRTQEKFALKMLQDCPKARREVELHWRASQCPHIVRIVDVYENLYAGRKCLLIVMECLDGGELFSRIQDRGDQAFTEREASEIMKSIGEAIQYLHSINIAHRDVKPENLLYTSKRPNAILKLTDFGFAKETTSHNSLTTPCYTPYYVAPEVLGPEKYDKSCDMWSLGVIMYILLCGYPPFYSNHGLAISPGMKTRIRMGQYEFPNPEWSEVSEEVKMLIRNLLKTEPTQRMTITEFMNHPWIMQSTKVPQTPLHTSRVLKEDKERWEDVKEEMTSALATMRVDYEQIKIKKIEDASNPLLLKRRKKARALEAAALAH
From the text: as §1

PHKG1 = target: T16, PHKG1 (Homo sapiens, UniProt Q16816); assay: scanMAX Kinase analysis panel (DiscoverX); assay type: binding; settings: drug 1 μM in DMSO; from % control
T16 construct: purchased DiscoverX scanMAX Kinase analysis panel
T16 sequence (Q16816 whole entry): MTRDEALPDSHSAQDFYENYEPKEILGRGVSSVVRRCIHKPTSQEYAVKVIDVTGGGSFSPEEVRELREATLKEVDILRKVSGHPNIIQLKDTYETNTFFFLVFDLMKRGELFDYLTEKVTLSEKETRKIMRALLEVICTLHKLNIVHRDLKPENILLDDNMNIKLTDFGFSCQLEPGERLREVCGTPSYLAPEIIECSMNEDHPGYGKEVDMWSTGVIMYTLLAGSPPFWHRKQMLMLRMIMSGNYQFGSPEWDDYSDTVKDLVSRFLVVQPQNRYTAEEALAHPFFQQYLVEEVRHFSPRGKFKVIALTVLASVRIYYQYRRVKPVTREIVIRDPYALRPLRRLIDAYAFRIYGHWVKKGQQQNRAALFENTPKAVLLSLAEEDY
From the text: as §1

PLK4 = target: T17, PLK4 (Homo sapiens, UniProt O00444); assay: scanMAX Kinase analysis panel (DiscoverX); assay type: binding; settings: drug 1 μM in DMSO; from % control
T17 construct: purchased DiscoverX
From the text: as §1

STK39 = target: T18, STK39 (Homo sapiens, UniProt Q9UEW8); assay: scanMAX Kinase analysis panel (DiscoverX); assay type: binding; settings: drug 1 μM in DMSO; from % control
T18 construct: purchased DiscoverX
From the text: as §1

[1] = test system: naive T cells in the mouse spleen; assay: Regulatory T cell and Th17 cell differentiation; assay type: cell-based; settings: FIG. 2
Procedure: The experiment was conducted using Harmine as a control.

[2] = test system: DSS-induced inflammatory bowel disease mouse model; assay: DSS-induced inflammatory bowel disease mouse model; assay type: in vivo, male C57BL/6 mice; settings: 20 mg/kg orally twice a day
Procedure: The animals used for the present experiment was male C57BL/6 mice (aged 6 to 8 weeks) weighting 20 to 24 g, purchased from Charles River Laboratories. All the mice except the normal control were made to drink 3% DSS water for 5 days to induce enteritis.
The comparative compound cyclosporine A was dissolved in 0.5% methylcellulose solvent and orally administered once a day at a prescribed concentration (20 mg/kg), and Tofacitinib was dissolved in 0.5% methylcellulose solvent and orally administered twice a day at a prescribed concentration (10 mg/kg).
Changes in body weight, occult bleeding in stool, and stool consistently were examined daily during the experiment to assess the degree of disease activity, and upon termination of the experiment (day 12), bowel tissue was collected in order to measure bowel tissue weight and length, perform histological analysis using H&E dyeing and PAS dyeing, and analyze expression of inflammatory cytokines in the bowel tissue.
To assess disease activity, changes in weight and other criteria disclosed in Table 4 below were used for scoring; scores were aggregated.

[3] = test system: house dust mite-induced atopic dermatitis model; assay: House dust mite-induced atopic dermatitis model; assay type: in vivo, NC/Nga mice
Procedure: The backs and ears of NC/Nga mice aged 8 weeks were shaved, and 0.1 g house dust mite cream was applied once every three days for a total of seven times to induce atopic dermatitis. For the negative control group where dermatitis was not induced, a cream not including house dust mites was applied. […] To the comparative control group, the JAK1 inhibitor upadacitinib was orally administered at 6 mg/kg twice daily for 14 days.
After inducing atopic dermatitis using house dust mite cream, symptoms as well as the state of the skin of the cars and backs were scored twice weekly starting from the initial date of administration; the measurements were added and the means are shown in FIG. 9. Furthermore, on the date of termination of the experiment, skin tissue and serum were collected to observe the level of expression of inflammatory cytokines in the tissue and the level of expression of IgE in serum using ELISA analysis; the results are shown in FIG. 10.

[4] = Metabolic stability (MS) evaluation; assay type: in vitro ADME
CYP 1A2 = CYP 1A2 (Homo sapiens, UniProt P05177); assay: CYP inhibition assay (luminescence); assay type: in vitro ADME
From the text: (§2) DDI (Drug Interaction) can be observed in a CYP inhibition assay. A luminescence assay was used to measure and evaluate inhibition activity against 1A2, 2C9, 2C19, 2D6 and 3A4, which are important Phase 1 drug metabolism CYP450 enzymes involved in drug metabolism.

CYP 2C19 = CYP 2C19 (Homo sapiens, UniProt P33261); assay: CYP inhibition assay (luminescence); assay type: in vitro ADME
From the text: as §2

CYP 2C9 = CYP 2C9 (Homo sapiens, UniProt P11712); assay: CYP inhibition assay (luminescence); assay type: in vitro ADME
CYP 2C9, sequence (P11712 whole entry): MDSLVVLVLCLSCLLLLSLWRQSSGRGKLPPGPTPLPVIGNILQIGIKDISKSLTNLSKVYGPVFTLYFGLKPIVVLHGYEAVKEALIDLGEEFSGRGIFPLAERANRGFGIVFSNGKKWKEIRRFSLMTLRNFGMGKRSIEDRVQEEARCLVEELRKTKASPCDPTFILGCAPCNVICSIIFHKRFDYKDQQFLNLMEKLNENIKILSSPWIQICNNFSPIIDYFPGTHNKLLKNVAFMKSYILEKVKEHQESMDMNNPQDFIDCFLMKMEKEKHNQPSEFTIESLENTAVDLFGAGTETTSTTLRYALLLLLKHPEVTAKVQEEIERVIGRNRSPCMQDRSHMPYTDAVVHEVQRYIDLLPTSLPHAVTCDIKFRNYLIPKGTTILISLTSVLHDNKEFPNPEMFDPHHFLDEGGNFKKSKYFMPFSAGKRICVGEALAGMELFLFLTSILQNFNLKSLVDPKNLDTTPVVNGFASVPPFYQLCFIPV
From the text: as §2

CYP 2D6 = CYP 2D6 (Homo sapiens, UniProt P10635); assay: CYP inhibition assay (luminescence); assay type: in vitro ADME
From the text: as §2

CYP 3A4 = CYP 3A4 (Homo sapiens, UniProt P08684); assay: CYP inhibition assay (luminescence); assay type: in vitro ADME
CYP 3A4, sequence (P08684 whole entry): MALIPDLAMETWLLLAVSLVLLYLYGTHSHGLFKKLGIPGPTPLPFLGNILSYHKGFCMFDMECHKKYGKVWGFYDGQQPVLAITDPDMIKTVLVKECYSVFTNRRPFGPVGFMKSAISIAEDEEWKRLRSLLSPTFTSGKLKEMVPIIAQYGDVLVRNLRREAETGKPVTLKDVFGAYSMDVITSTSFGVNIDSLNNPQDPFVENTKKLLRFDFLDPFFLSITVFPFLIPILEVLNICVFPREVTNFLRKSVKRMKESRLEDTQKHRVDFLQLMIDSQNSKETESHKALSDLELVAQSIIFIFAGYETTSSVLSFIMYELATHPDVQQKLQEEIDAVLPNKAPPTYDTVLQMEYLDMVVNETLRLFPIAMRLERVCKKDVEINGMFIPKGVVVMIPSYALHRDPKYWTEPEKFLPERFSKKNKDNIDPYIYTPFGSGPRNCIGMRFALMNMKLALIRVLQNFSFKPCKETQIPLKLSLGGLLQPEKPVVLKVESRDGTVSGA
From the text: as §2

Q: Which results are given for `CCNc1cc(Nc2ccc(C(=O)N3CCC(N4CCOCC4)CC3)cc2OC)nc2[nH]cc(C(F)(F)F)c12` [Compound 1, (4-((4-(ethylamino)-3-(trifluoromethyl)-1H-pyrrolo[2,3-b]pyridine-6-yl)amino)-3-methoxyphenyl)(4-morpholinopiperidine-1-yl)methanone]?
A: inhibition at 1 µM (ABL1-nonphosphorylated): 40 to 59%; inhibition at 1 µM (ALK): ≥ 59%; inhibition at 1 µM (ALK(C1156Y)): ≥ 59%; inhibition at 1 µM (ALK(L1196M)): ≥ 59%; inhibition at 1 µM (CAMK2D): 40 to 59%; inhibition at 1 µM (CSNK1A1): 40 to 59%; inhibition at 1 µM (CSNK1D): ≥ 59%; inhibition at 1 µM (GAK): ≥ 59%; inhibition at 1 µM (HUNK): 40 to 59%; inhibition at 1 µM (INSR): 40 to 59%; inhibition at 1 µM (JNK1): ≥ 59%; inhibition at 1 µM (JNK2): 40 to 59%; inhibition at 1 µM (LRRK2): 40 to 59%; inhibition at 1 µM (LTK): ≥ 59%; inhibition at 1 µM (MAPKAPK2): 40 to 59%; inhibition at 1 µM (PHKG1): ≥ 59%; inhibition at 1 µM (PLK4): 40 to 59%; inhibition at 1 µM (STK39): 40 to 59%; differentiation of Th17 cells ([1]; Th17 differentiation conditions): decreased; differentiation of regulatory T cells (Treg) ([1]; regulatory T cell differentiation conditions): increased; disease activity ([2]; FIG. 7): reduced to the level of the control administered cyclosporine A; expression of IL-6 in bowel tissue ([2]; FIG. 8): decreased; expression of IL-17A in bowel tissue ([2]; FIG. 8): decreased; expression of TNR-α in bowel tissue ([2]; FIG. 8): decreased; loss of goblet cells ([2]; histological analysis, FIG. 8): reduced; body weight reduction ([2]; vs control not treated, FIG. 7): less weight reduction; dermatitis on the back and ears ([3]; 10, 20 and 30 mpk orally twice daily for 14 days, FIG. 9): alleviated in a concentration-dependent manner; IgE expression in serum ([3]; 10, 20 and 30 mpk, ELISA, FIG. 10): concentration-dependent reduction; alleviating dermatitis ([3]; 30 mpk orally twice daily for 14 days): most effective; IgE expression in serum ([3]; 30 mpk, ELISA, FIG. 10): statistically significant reduction; inflammatory cytokine expression in the back tissue ([3]; 30 mpk, against the control group, ELISA, FIG. 10): statistically significant reduction; alleviating atopic dermatitis, compared with upadacitinib control group ([3]; upadacitinib 6 mg/kg orally twice daily for 14 days): more effective; MS (1 μM) (% remaining during 30 min) Dog [4]: 96%; CYP (10 μM) (% of control activity 1A2) (CYP 1A2): 86%; CYP (10 μM) (% of control activity 2C19) (CYP 2C19): 84%; CYP (10 μM) (% of control activity 2C9) (CYP 2C9): 74%; CYP (10 μM) (% of control activity 2D6) (CYP 2D6): 92%; CYP 3A4 enzyme inhibition activity (in words) (CYP 3A4): almost no enzyme inhibition activity; CYP (10 μM) (% of control activity 3A4) (CYP 3A4; 10 μM): 72%
